Reference: patent publication US10376520B2, “Methods for the treatment of cardiovascular disorders” (Galapagos NV, priority 2015, dated 2019)

Test system: RA patients
Assay: Total cholesterol determination, Study 1 (RA patients with inadequate response to methotrexate, add-on to MTX)
Type: in vivo, human
Experimental: Double-blind, placebo-controlled add on study in subjects with moderately to severely active RA who have an inadequate response to methotrexate (MTX) (oral or parenteral).
595 subjects randomized to one of 6 dose regimens of Compound 1 (dosed as a [Compound 1:HCl:3H2O]) (3 dose levels administered either once or twice daily) or placebo on top of each subject's stable dose of MTX.
Compound 1 (dosed as a [Compound 1:HCl:3H2O]) is dosed for twelve weeks once daily (q.d.) (50 mg, 100 mg or 200 mg) or twice daily (b.i.d.) (25 mg, 50 mg or 100 mg); or placebo.
At Week 12, the subjects on placebo who have not achieved 20% improvement in swollen joint count (SJC66) and tender joint count (TJC68) are re-randomized automatically to receive Compound 1 (dosed as a [Compound 1:HCl:3H2O]) either at 100 mg q.d. or 50 mg b.i.d. doses in a blinded fashion; subjects on 50 mg q.d. who have not achieved 20% improvement in SJC66 and TJC68 will be assigned to 100 mg q.d. and subjects on 25 mg b.i.d. that have not achieved a 20% improvement in SJC66 and TJC68 will be assigned to 50 mg b.i.d. Subjects who switch treatment at week 12 are handled as if they discontinued at week 12 for the purpose of statistical analysis, whereas subjects in the other groups will maintain their randomized treatment until Week 24.
This method is based on the determination of Δ^4 cholestenone after enzymatic cleavage of the cholesterol ester by cholesterol esterase, conversion of cholesterol by cholesterol oxidase, and subsequent measurement by the Trinder reaction of the hydrogen peroxide formed (Allain et al., 1974).
Cholesterol esters are cleaved by the action of cholesterol esterase to yield free cholesterol and fatty acids. Cholesterol oxidase then catalyzes the oxidation of cholesterol to cholest-4-en-3-one and hydrogen peroxide. In the presence of peroxidase, the hydrogen peroxide formed effects the oxidative coupling of phenol and 4-aminophenazone to form a red quinone-imine dye. The color intensity of the dye formed is directly proportional to the cholesterol concentration. It is determined by measuring the increase in absorbance.
Human serum and plasma samples cholesterol determination was done on a Roche/Hitachi Cobas c 701/702 system which automatically calculate the analyte concentration of each sample.

O=C(Nc1nc2cccc(-c3ccc(CN4CCS(=O)(=O)CC4)cc3)n2n1)C1CC1 [Compound 1, cyclopropanecarboxylic acid {5-[4-(1,1-dioxo-thiomorpholin-4-ylmethyl)-phenyl]-[1,2,4]triazolo[1,5-a]pyridin-2yl}-amide]
[total cholesterol] Mean percentage CFB - 24 weeks results (continued 25 mg b.i.d (N = 69), week 12): 6.38%
[total cholesterol] Mean percentage CFB - 24 weeks results (continued 25 mg b.i.d (N = 69), week 16): 5.51%
[total cholesterol] Mean percentage CFB - 24 weeks results (continued 25 mg b.i.d (N = 69), week 20): 6.95%
[total cholesterol] Mean percentage CFB - 24 weeks results (continued 25 mg b.i.d (N = 69), week 24): 6.53%
[total cholesterol] Mean percentage CFB - 24 weeks results (continued 50 mg b.i.d. (N = 85), week 1): 3.39%
[total cholesterol] Mean percentage CFB - 24 weeks results (continued 50 mg b.i.d. (N = 85), week 2): 3.87%
[total cholesterol] Mean percentage CFB - 24 weeks results (continued 50 mg b.i.d. (N = 85), week 4): 7.04%
[total cholesterol] Mean percentage CFB - 24 weeks results (continued 50 mg b.i.d. (N = 85), week 8): 5.63%
[total cholesterol] Mean percentage CFB - 24 weeks results (continued 50 mg b.i.d. (N = 85), week 12): 5.67%
[total cholesterol] Mean percentage CFB - 24 weeks results (continued 50 mg b.i.d. (N = 85), week 16): 6.23%
[total cholesterol] Mean percentage CFB - 24 weeks results (continued 50 mg b.i.d. (N = 85), week 20): 7.91%
[total cholesterol] Mean percentage CFB - 24 weeks results (continued 50 mg b.i.d. (N = 85), week 24): 7.97%
[total cholesterol] Mean percentage CFB - 24 weeks results (continued 50 mg q.d. (N = 63), week 1): 0.77%
[total cholesterol] Mean percentage CFB - 24 weeks results (continued 50 mg q.d. (N = 63), week 2): −0.22%
[total cholesterol] Mean percentage CFB - 24 weeks results (continued 50 mg q.d. (N = 63), week 4): 1.08%
[total cholesterol] Mean percentage CFB - 24 weeks results (continued 50 mg q.d. (N = 63), week 8): 3.49%
[total cholesterol] Mean percentage CFB - 24 weeks results (continued 50 mg q.d. (N = 63), week 12): 5.58%
[total cholesterol] Mean percentage CFB - 24 weeks results (continued 50 mg q.d. (N = 63), week 16): 5.15%
[total cholesterol] Mean percentage CFB - 24 weeks results (continued 50 mg q.d. (N = 63), week 20): 4.68%
[total cholesterol] Mean percentage CFB - 24 weeks results (continued 50 mg q.d. (N = 63), week 24): 6.75%
[total cholesterol] Mean percentage CFB - 24 weeks results (continued 100 mg b.i.d. (N = 84), week 1): 6.85%
[total cholesterol] Mean percentage CFB - 24 weeks results (continued 100 mg b.i.d. (N = 84), week 2): 8.38%
[total cholesterol] Mean percentage CFB - 24 weeks results (continued 100 mg b.i.d. (N = 84), week 4): 9.86%
[total cholesterol] Mean percentage CFB - 24 weeks results (continued 100 mg b.i.d. (N = 84), week 8): 14.79%
[total cholesterol] Mean percentage CFB - 24 weeks results (continued 100 mg b.i.d. (N = 84), week 12): 14.98%
[total cholesterol] Mean percentage CFB - 24 weeks results (continued 100 mg b.i.d. (N = 84), week 16): 12.82%
[total cholesterol] Mean percentage CFB - 24 weeks results (continued 100 mg b.i.d. (N = 84), week 20): 12.71%
[total cholesterol] Mean percentage CFB - 24 weeks results (continued 100 mg b.i.d. (N = 84), week 24): 15.39%
[total cholesterol] Mean percentage CFB - 24 weeks results (continued 100 mg q.d. (N = 85), week 1): 3.65%
[total cholesterol] Mean percentage CFB - 24 weeks results (continued 100 mg q.d. (N = 85), week 2): 2.32%
[total cholesterol] Mean percentage CFB - 24 weeks results (continued 100 mg q.d. (N = 85), week 4): 4.86%
[total cholesterol] Mean percentage CFB - 24 weeks results (continued 100 mg q.d. (N = 85), week 8): 3.79%
[total cholesterol] Mean percentage CFB - 24 weeks results (continued 100 mg q.d. (N = 85), week 12): 5.39%
[total cholesterol] Mean percentage CFB - 24 weeks results (continued 100 mg q.d. (N = 85), week 16): 1.87%
[total cholesterol] Mean percentage CFB - 24 weeks results (continued 100 mg q.d. (N = 85), week 20): 3.28%
[total cholesterol] Mean percentage CFB - 24 weeks results (continued 100 mg q.d. (N = 85), week 24): 5.05%
[total cholesterol] Mean percentage CFB - 24 weeks results (continued 200 mg q.d. (N = 86), week 1): 5.53%
[total cholesterol] Mean percentage CFB - 24 weeks results (continued 200 mg q.d. (N = 86), week 2): 9.86%
[total cholesterol] Mean percentage CFB - 24 weeks results (continued 200 mg q.d. (N = 86), week 4): 8.99%
[total cholesterol] Mean percentage CFB - 24 weeks results (continued 200 mg q.d. (N = 86), week 8): 6.72%
[total cholesterol] Mean percentage CFB - 24 weeks results (continued 200 mg q.d. (N = 86), week 12): 10.16%
[total cholesterol] Mean percentage CFB - 24 weeks results (continued 200 mg q.d. (N = 86), week 16): 9.19%
[total cholesterol] Mean percentage CFB - 24 weeks results (continued 200 mg q.d. (N = 86), week 20): 8.00%
[total cholesterol] Mean percentage CFB - 24 weeks results (continued 200 mg q.d. (N = 86), week 24): 9.94%
[total cholesterol] Mean percentage CFB - 24 weeks results (from 25 mg b.i.d. to 50 mg b.i.d at 12 weeks (N = 17), week 1): 0.55%
[total cholesterol] Mean percentage CFB - 24 weeks results (from 25 mg b.i.d. to 50 mg b.i.d at 12 weeks (N = 17), week 2): 2.37%
[total cholesterol] Mean percentage CFB - 24 weeks results (from 25 mg b.i.d. to 50 mg b.i.d at 12 weeks (N = 17), week 4): −2.60%
[total cholesterol] Mean percentage CFB - 24 weeks results (from 25 mg b.i.d. to 50 mg b.i.d at 12 weeks (N = 17), week 8): −2.81%
[total cholesterol] Mean percentage CFB - 24 weeks results (from 25 mg b.i.d. to 50 mg b.i.d at 12 weeks (N = 17), week 12): 0.30%
[total cholesterol] Mean percentage CFB - 24 weeks results (from 25 mg b.i.d. to 50 mg b.i.d at 12 weeks (N = 17), week 16): 4.23%
[total cholesterol] Mean percentage CFB - 24 weeks results (from 25 mg b.i.d. to 50 mg b.i.d at 12 weeks (N = 17), week 24): 2.66%
[total cholesterol] Mean percentage CFB - 24 weeks results (from 50 mg q.d. to 100 mg q.d. at 12 weeks (N = 19), week 1): 1.24%
[total cholesterol] Mean percentage CFB - 24 weeks results (from 50 mg q.d. to 100 mg q.d. at 12 weeks (N = 19), week 2): 4.36%
[total cholesterol] Mean percentage CFB - 24 weeks results (from 50 mg q.d. to 100 mg q.d. at 12 weeks (N = 19), week 4): 1.67%
[total cholesterol] Mean percentage CFB - 24 weeks results (from 50 mg q.d. to 100 mg q.d. at 12 weeks (N = 19), week 8): 2.29%
[total cholesterol] Mean percentage CFB - 24 weeks results (from 50 mg q.d. to 100 mg q.d. at 12 weeks (N = 19), week 12): 2.39%
[total cholesterol] Mean percentage CFB - 24 weeks results (from 50 mg q.d. to 100 mg q.d. at 12 weeks (N = 19), week 16): 7.55%
[total cholesterol] Mean percentage CFB - 24 weeks results (from 50 mg q.d. to 100 mg q.d. at 12 weeks (N = 19), week 20): 6.69%
[total cholesterol] Mean percentage CFB - 24 weeks results (from 50 mg q.d. to 100 mg q.d. at 12 weeks (N = 19), week 24): 5.15%
[total cholesterol] Mean percentage CFB - 24 weeks results (placebo switched to 50 mg b.i.d at week 12 (N = 15), week 16): 3.97%
[total cholesterol] Mean percentage CFB - 24 weeks results (placebo switched to 50 mg b.i.d at week 12 (N = 15), week 20): 5.80%
[total cholesterol] Mean percentage CFB - 24 weeks results (placebo switched to 50 mg b.i.d at week 12 (N = 15), week 24): 3.22%
